Experimental data: PubChem BioAssay (NCI)
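Each compound was tested at five concentrations against cells in 96-well plates for 48 hours. Abbreviation: GI50, concentration required for 50% inhibition of growth. TGI: concentration producing complete growth inhibition.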

Experiments:
Experiment in all cases: DTP human tumour cell line panel, 48 h
[1] = test system: SN12C renal
[2] = test system: HOP-62 NSCLC
[3] = test system: HCT-15 colon
[4] = test system: RPMI-8226 leukemia
[5] = test system: BT-549 breast
[6] = test system: SR leukemia
[7] = test system: RXF 393 renal
[8] = test system: MCF7 breast
[9] = test system: ACHN renal
[10] = test system: PC-3 prostate

| SMILES | GI50 [1] | TGI [1] | GI50 [2] | TGI [2] | GI50 [3] | TGI [3] | GI50 [4] | TGI [4] | GI50 [5] | TGI [5] | GI50 [6] | TGI [6] | GI50 [7] | TGI [7] | GI50 [8] | TGI [8] | GI50 [9] | TGI [9] | GI50 [10] | TGI [10] |
| --- | --- | --- | --- | --- | --- | --- | --- | --- | --- | --- | --- | --- | --- | --- | --- | --- | --- | --- | --- | --- |
| O=C(c1ccccc1)c1ccc(Oc2ccc([N+](=O)[O-])cc2[N+](=O)[O-])cc1 | 3.25 µM | 19.1 µM | 7.81 µM | 43.1 µM | 3.48 µM | > 100 µM | 2.56 µM | 7.72 µM | 3.75 µM | 40.3 µM | 2.6 µM | 7.79 µM | 3.32 µM | 11.8 µM | 3.71 µM | 19.7 µM | 3.72 µM | 13.6 µM | 5.66 µM | > 100 µM |
| COC(=O)C(=O)C(C(=O)C(=O)Nc1nc2ccc(C)cc2s1)c1nc2ccc([N+](=O)[O-])cc2[nH]c1=O (stereo not given) | – | > 100 µM | – | > 100 µM | – | > 100 µM | – | > 100 µM | – | > 100 µM | – | > 100 µM | – | > 100 µM | – | > 100 µM | – | > 100 µM | – | > 100 µM |
| Cc1ccc(C(SCC(N)C(=O)O)(c2ccc(C)cc2)c2ccc(C)cc2)cc1 (stereo not given) | 2.74 µM | 18.4 µM | 6.52 µM | 22.3 µM | 4.54 µM | 27.9 µM | 2.27 µM | 12.5 µM | 3.33 µM | 20.5 µM | 1.92 µM | 6.91 µM | 1.46 µM | 14.8 µM | 0.895 µM | 18.4 µM | 14.5 µM | > 68.3 µM | 2.94 µM | 20.1 µM |
| O=[N+]([O-])c1ccccc1N/N=C\c1c[nH]c2ccccc12 | 10.2 µM | > 100 µM | 13.8 µM | 31.1 µM | 5.68 µM | > 100 µM | 47.4 µM | > 100 µM | > 21.5 µM | > 100 µM | 3.4 µM | > 100 µM | 10.7 µM | 57.8 µM | 0.85 µM | > 100 µM | 13.9 µM | > 67.3 µM | 4.25 µM | > 100 µM |
| C=CC(C1=CC(=O)C(OC)=CC1=O)c1ccccc1 (stereo not given) | – | 28 µM | – | 32.4 µM | – | 32 µM | – | > 67.6 µM | – | 29.9 µM | – | 26.5 µM | – | 29.2 µM | – | 26.2 µM | – | 27.4 µM | – | 25.7 µM |
| COc1ccc2cc(-c3cc4c(oc3=O)-c3ccccc3OC4O)c(=O)oc2c1 (stereo not given) | 17.2 µM | 32.2 µM | 20.3 µM | 35.4 µM | 15.8 µM | 32 µM | 13.4 µM | 58.7 µM | 14.7 µM | 28.2 µM | 79.7 µM | > 100 µM | 18.7 µM | 36.4 µM | 17.1 µM | 34.1 µM | 16.1 µM | 30.1 µM | 14.7 µM | 28.3 µM |
| COc1cc(-c2nc3ccccc3s2)ccc1NC(=O)COc1ccc(Cl)cc1 | 5.29 µM | > 100 µM | 4.15 µM | 34.3 µM | > 100 µM | > 100 µM | 11.8 µM | > 100 µM | > 100 µM | > 100 µM | 76.5 µM | > 100 µM | 3.25 µM | 11.3 µM | 5.05 µM | > 100 µM | 4.92 µM | > 100 µM | 3.51 µM | > 100 µM |
| Cn1cc(C2=C(c3cn(C)c4c([N+](=O)[O-])cccc34)C(=O)NC2=O)c2ccccc21 | > 25 µM | > 25 µM | > 25 µM | > 25 µM | > 25 µM | > 25 µM | > 25 µM | > 25 µM | > 25 µM | > 25 µM | > 25 µM | > 25 µM | > 25 µM | > 25 µM | > 25 µM | > 25 µM | > 25 µM | > 25 µM | > 25 µM | > 25 µM |
| COc1ccc(C(=O)COC(=O)[C@H](C[Se][Se]C[C@H](NC(=O)c2ccc(Br)cc2F)C(=O)OCC(=O)c2ccc(OC)cc2)NC(=O)c2ccc(Br)cc2F)cc1 | 1.04 µM | 2.49 µM | 0.415 µM | 1.83 µM | 1.03 µM | 2.99 µM | 0.502 µM | 5.69 µM | 0.86 µM | 2.47 µM | 0.478 µM | 4.82 µM | 1.56 µM | 3.19 µM | 1.52 µM | 4.1 µM | 0.884 µM | 2.49 µM | 0.318 µM | 1.41 µM |
| COc1ccc2c(c1)[n+](=O)c(C(=O)c1ccco1)c(C(F)(F)F)n2[O-] | 3.01 µM | 11.8 µM | 2.86 µM | 21.6 µM | 1.16 µM | 4.6 µM | 1.62 µM | 22.1 µM | 2.64 µM | 18.9 µM | 0.346 µM | > 100 µM | 1.67 µM | 12 µM | 3.82 µM | > 100 µM | 0.514 µM | 2.53 µM | 4.64 µM | > 100 µM |
